Laboratory results: ChEMBL document CHEMBL4422622, “Identification of Mineralocorticoid Receptor Modulators with Low Impact on Electrolyte Homeostasis but Maintained Organ Protection” (J Med Chem, 2019)
Converted amounts (≈) assume the structure as drawn.

Legend:
[1] = Apparent permeability in human Caco2 cells at 10 uM after 45 to 120 mins by LC/MS/MS analysis; format: ADME, cell-based; details: Caco-2
[2] = Intrinsic clearance in human hepatocytes assessed per million cells at 1 uM measured up to 120 mins in presence of NADPH by LC-MS/MS analysis; format: ADME, cell-based, Hepatocyte; details: read-out: CLH
[3] = target: T1, Mineralocorticoid receptor (Homo sapiens, UniProt P08235)
T1 sequence (P08235 whole entry): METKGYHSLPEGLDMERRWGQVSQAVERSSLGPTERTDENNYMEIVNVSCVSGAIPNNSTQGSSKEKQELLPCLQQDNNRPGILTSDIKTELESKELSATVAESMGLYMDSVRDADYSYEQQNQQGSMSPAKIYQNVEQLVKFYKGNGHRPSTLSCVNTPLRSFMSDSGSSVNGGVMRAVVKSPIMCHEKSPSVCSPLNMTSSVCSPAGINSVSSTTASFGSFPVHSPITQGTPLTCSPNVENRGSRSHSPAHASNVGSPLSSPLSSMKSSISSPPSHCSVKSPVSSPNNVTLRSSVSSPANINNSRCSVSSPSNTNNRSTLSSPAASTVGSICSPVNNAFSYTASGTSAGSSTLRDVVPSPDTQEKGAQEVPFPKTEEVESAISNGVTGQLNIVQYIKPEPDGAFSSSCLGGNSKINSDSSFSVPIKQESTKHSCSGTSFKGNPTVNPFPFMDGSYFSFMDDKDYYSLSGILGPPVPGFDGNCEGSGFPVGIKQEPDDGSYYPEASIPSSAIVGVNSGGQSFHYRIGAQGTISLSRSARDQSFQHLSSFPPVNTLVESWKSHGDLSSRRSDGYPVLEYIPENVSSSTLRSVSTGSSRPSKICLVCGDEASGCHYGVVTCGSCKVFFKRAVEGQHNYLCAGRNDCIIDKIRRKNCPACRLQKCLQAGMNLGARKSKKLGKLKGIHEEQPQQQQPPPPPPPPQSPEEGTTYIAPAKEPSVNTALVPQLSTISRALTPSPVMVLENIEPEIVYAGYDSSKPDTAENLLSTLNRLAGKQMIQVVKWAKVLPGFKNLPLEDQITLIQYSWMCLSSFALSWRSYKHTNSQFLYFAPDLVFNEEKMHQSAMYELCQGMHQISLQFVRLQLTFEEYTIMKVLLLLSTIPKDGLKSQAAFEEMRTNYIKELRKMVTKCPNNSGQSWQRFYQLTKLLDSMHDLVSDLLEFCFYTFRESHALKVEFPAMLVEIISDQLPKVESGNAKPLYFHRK
Description: Displacement of [3H]-aldosterone to human mineralocorticoid receptor LBD by radiometric binding assay

[4] = target: T1, Mineralocorticoid receptor; remark: listed apart in the source
Description: Antagonist activity at gal4-fused human mineralocorticoid receptor LBD expressed in UAS-MR-bla HEK293 cells by luciferase reporter gene assay

Glucocorticoid receptor = target: T2, Glucocorticoid receptor (Homo sapiens, UniProt P04150)
T2 sequence (P04150 whole entry): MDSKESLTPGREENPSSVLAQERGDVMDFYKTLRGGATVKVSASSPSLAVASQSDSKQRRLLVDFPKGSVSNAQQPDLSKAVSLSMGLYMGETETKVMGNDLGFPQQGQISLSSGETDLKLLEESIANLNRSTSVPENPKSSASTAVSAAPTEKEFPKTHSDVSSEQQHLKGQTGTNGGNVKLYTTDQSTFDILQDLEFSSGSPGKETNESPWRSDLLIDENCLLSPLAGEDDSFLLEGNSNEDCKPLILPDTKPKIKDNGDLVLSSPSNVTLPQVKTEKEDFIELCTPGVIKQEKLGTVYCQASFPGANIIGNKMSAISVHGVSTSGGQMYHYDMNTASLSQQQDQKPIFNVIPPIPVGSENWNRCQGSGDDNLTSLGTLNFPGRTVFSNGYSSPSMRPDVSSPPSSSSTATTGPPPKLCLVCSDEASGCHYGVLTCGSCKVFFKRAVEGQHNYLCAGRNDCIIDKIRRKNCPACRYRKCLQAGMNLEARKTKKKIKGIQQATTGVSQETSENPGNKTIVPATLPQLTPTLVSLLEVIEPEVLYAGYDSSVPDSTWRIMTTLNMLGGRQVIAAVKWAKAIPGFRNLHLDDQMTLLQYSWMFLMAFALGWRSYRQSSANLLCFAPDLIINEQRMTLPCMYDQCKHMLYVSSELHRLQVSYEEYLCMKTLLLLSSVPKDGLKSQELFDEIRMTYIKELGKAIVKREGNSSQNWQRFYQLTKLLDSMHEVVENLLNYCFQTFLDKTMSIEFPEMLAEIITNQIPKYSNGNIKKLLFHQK
Description: Binding affinity to recombinant human GR LBD by fluormone GS red-fluorescence polarization assay

[5] = Octanol-water partitioning co-efficient, log D of the compound at pH 7.4 by LC/MS/MS analysis; format: physicochemical
[6] = Kinetic solubility of compound at pH 7.4 after 24 hrs by shake-flask assay; format: physicochemical; details: buffer, read-out: -log(solubility) (converted)
[7] = Intrinsic clearance in human liver microsomes at 1 uM measured up to 30 mins in presence of NADPH by LC-MS/MS analysis; format: ADME, Microsome; details: read-out: CLH

Compound | Papp at 10 µM [1] [×10⁻⁶ cm/s] | hepatocyte CLint at 1 µM [2] [µL/min/1e6 cells] | Ki [3] [µM] | IC50 [4] [µM] | Ki (Glucocorticoid receptor) [µM] | logD [5] | solubility kinetic at 24 h [6] [µM] | microsomal CLint at 1 µM [7] [µL/min/mg]
CNC(=O)C[C@H]1COc2cc(C#N)ccc2N1C(=O)c1ccc2c(c1)NC(=O)CO2 | 1.5 | < 1 | 1 | 6.31 | > 12.6 | 0.9 |  | 
CNC(=O)C[C@H]1COc2ccccc2N1C(=O)c1ccc2c(c1)NC(=O)CO2 | 6.8 | < 1 |  |  | 3.16 | 1.1 |  | 
NC(=O)C[C@H]1CNc2cc(Cl)ccc2N1C(=O)c1ccc2c(c1)NC(=O)CO2 | < 0.81 | < 1 | 0.00794 | 0.126 | 0.316 | 1.5 |  | 
CNC(=O)C[C@H]1CCc2cc(F)ccc2N1C(=O)c1ccc2c(c1)NC(=O)CO2 | 6.3 | < 1.8 | 0.316 | 2 | 6.31 | 1.4 |  | 
CS(=O)(=O)C[C@H]1COc2cc(F)ccc2N1C(=O)c1ccc2c(c1)NC(=O)CO2 | 10 | 8 | 0.000316 | 0.00251 | 0.02 | 1.4 |  | 
CNC(=O)C[C@H]1COc2cc(F)ccc2N1C(=O)c1ccc2c(c1)NC(=O)OC2 |  | < 1 | > 6.31 | > 10 | > 15.8 | 0.9 |  | 
CNC(=O)C[C@H]1COc2cc(Br)ccc2N1C(=O)c1ccc2c(c1)NC(=O)CO2 | 23 | 5 |  |  | 0.126 | 2.2 |  | 
CC(C)Cc1cc2c(cc1Cl)OC[C@H](CC(N)=O)N2C(=O)c1ccc2c(c1)NC(=O)CO2 |  | 11 | 0.000501 | 0.00251 | 0.00126 | 3.3 |  | 
CNC(=O)C[C@H]1COc2cc(Cl)cc(C)c2N1C(=O)c1ccc2c(c1)NC(=O)CO2 | 7.8 | 2.5 | 0.398 | 2 | > 12.6 | 1.2 |  | 
CNC(=O)C[C@H]1COc2cc(F)c(OC(C)C)cc2N1C(=O)c1ccc2c(c1)NC(=O)CO2 |  | < 2 | 0.01 | 0.2 | 0.0794 | 1.8 |  | 
CNC(=O)C[C@H]1COc2cc(F)c(CC(C)C)cc2N1C(=O)c1ccnc(NC(N)=O)c1 |  | 6.1 | 0.00794 | 0.1 | 0.126 | 2.2 |  | 
N#CC[C@H]1COc2ccccc2N1C(=O)c1ccc2c(c1)NC(=O)CO2 |  |  | 0.501 | 3.98 |  | 1.5 | 794 (≈ 277 µg/mL) | 34
O=C1COc2ccc(C(=O)N3CCOc4ccccc43)cc2N1 |  |  | 1 | 3.16 |  | 2 | 15.8 (≈ 4.92 µg/mL) | 4
CNC(=O)C[C@H]1COc2cc(F)c(CC(C)C)cc2N1C(=O)c1ccc2c(c1)NC(=O)CO2 |  | 13 | 0.000631 | 0.02 | 0.00794 | 3.1 |  | 
CNC(=O)C[C@H]1COc2cc(C)ccc2N1C(=O)c1ccc2c(c1)NC(=O)CO2 | 14 | 2.8 | 0.00398 | 0.1 | 0.316 | 1.6 |  | 
Cc1ccc(C2CCCCN2S(=O)(=O)c2ccc3c(c2)NC(=O)CO3)cc1 (racemic) |  |  |  | 6.31 |  | 3.3 | < 0.794 | 120
N=C(c1ccc2c(c1)NC(=O)CO2)[C@@H](Sc1nnc[nH]1)c1ccccc1 |  |  | 0.501 |  |  | 2.4 |  | 
NS(=O)(=O)C[C@H]1COc2cc(F)ccc2N1C(=O)c1ccc2cc[nH]c2c1 |  | 3.6 | 0.0501 | 0.251 | 0.631 | 2.3 |  | 
CNC(=O)C[C@H]1COc2cc(C(F)(F)F)ccc2N1C(=O)c1ccc2c(c1)NC(=O)CO2 | 19 | 3 | 0.0126 | 0.0794 | 0.398 | 2.4 |  | 

Continued, values first:

Papp at 10 µM [1] [×10⁻⁶ cm/s] | hepatocyte CLint at 1 µM [2] [µL/min/1e6 cells] | Ki [3] [µM] | IC50 [4] [µM] | Ki (Glucocorticoid receptor) [µM] | logD [5] | solubility kinetic at 24 h [6] [µM] | microsomal CLint at 1 µM [7] [µL/min/mg] | Compound
 | 18 | < 0.000316 | 0.000794 | 0.00158 | 2.8 |  |  | CC(C)Cc1cc2c(cc1F)OC[C@H](CS(N)(=O)=O)N2C(=O)c1ccc2c(c1)NC(=O)CO2
< 0.6 | < 1 | > 10 | > 10 | > 15.8 | 0.4 |  |  | NC(=O)C[C@H]1COCc2cc(F)ccc2N1C(=O)c1ccc2c(c1)NC(=O)CO2
 |  | 6.31 | > 10 |  | 2.9 | 100 (≈ 34 µg/mL) | 70 | C[C@@H]1CCc2cc(F)ccc2N1C(=O)c1ccc2c(c1)NC(=O)CO2
 | 26 | 0.01 | 0.251 | 0.2 | > 4.4 |  |  | O=C1COc2ccc(C(=O)N3c4cc(CC5CCCCC5)c(F)cc4OC[C@@H]3CCO)cc2N1
 |  |  |  |  | 2.7 |  |  | C[C@@H]1CN(c2ccc3c(n2)NC(=O)CO3)[C@H](c2ccccc2)CO1
6.2 | < 1 |  |  |  | 1.3 |  |  | CNC(=O)C[C@@H]1COc2cc(F)ccc2N1C(=O)c1ccc2c(c1)NC(=O)CO2
3 | < 1 |  |  | 0.631 | 1.1 |  |  | NC(=O)C[C@H]1COc2cc(F)ccc2N1C(=O)c1ccc2c(c1)NC(=O)CO2
 |  | 0.0631 | 0.316 |  | 2.2 | 398 (≈ 159 µg/mL) | > 300 | COC(=O)C[C@H]1COc2cc(F)ccc2N1C(=O)c1ccc2c(c1)NC(=O)CO2
10 | 3 | > 10 | > 10 | > 15.8 | 1.6 |  |  | CCNC(=O)CC1COc2cc(F)ccc2N1C(=O)c1ccc2c(c1)NC(=O)CO2 (racemic)
 |  |  |  |  | 4 |  |  | O=c1[nH]c2ccc(/C=C3\c4ccccc4COc4cc(F)ccc43)cc2[nH]1
 | < 2 | 0.00316 | 0.0794 | 0.00251 | 2 |  |  | NC(=O)C[C@H]1COc2cc(F)c(C3CC3)cc2N1C(=O)c1ccc2c(c1)NC(=O)CO2
5.6 | 1.5 |  |  | 0.0316 | 1.7 |  |  | NC(=O)C[C@H]1COc2cc(Cl)ccc2N1C(=O)c1ccc2c(c1)NC(=O)CO2
38 | 60 | 0.0158 | 0.0631 | 1 | 1.8 |  |  | Cc1ccc2c(c1)OC[C@](C)(CS(C)(=O)=O)N2C(=O)c1ccc2c(c1)NC(=O)CO2
 | < 1 | 0.0398 | 0.2 | 1.26 | 1.3 |  |  | NS(=O)(=O)C[C@H]1COc2cc(F)ccc2N1C(=O)c1ccc2c(c1)NCCO2
